From a compilation of properties of binary mixtures (doi:10.1016/j.molliq.2022.118933)

Test: xn = mol fraction of the nth substance listed
Details: 100 kPa

CCCC[N+](C)(C)C[c-]1cccc1.O=S(=O)([N-]S(=O)(=O)C(F)(F)F)C(F)(F)F.[Fe+2].c1cc[cH-]c1 + CC#N
electrical conductivity (298 K, x1 = 0.01): 1.35 S/m
electrical conductivity (298 K, x1 = 0.02): 1.89 S/m
electrical conductivity (298 K, x1 = 0.05): 2.2 S/m
electrical conductivity (298 K, x1 = 0.06): 2.14 S/m
electrical conductivity (298 K, x1 = 0.07): 2.07 S/m
electrical conductivity (298 K, x1 = 0.08): 1.96 S/m
electrical conductivity (298 K, x1 = 0.1): 1.8 S/m
electrical conductivity (298 K, x1 = 0.12): 1.45 S/m
electrical conductivity (298 K, x1 = 0.15): 1.17 S/m
electrical conductivity (298 K, x1 = 0.2): 0.759 S/m
electrical conductivity (303 K, x1 = 0.01): 1.41 S/m
electrical conductivity (303 K, x1 = 0.02): 1.98 S/m
electrical conductivity (303 K, x1 = 0.03): 2.28 S/m
electrical conductivity (303 K, x1 = 0.05): 2.32 S/m
electrical conductivity (303 K, x1 = 0.06): 2.28 S/m
electrical conductivity (303 K, x1 = 0.07): 2.2 S/m
electrical conductivity (303 K, x1 = 0.08): 2.07 S/m
electrical conductivity (303 K, x1 = 0.12): 1.57 S/m
electrical conductivity (303 K, x1 = 0.15): 1.24 S/m
electrical conductivity (303 K, x1 = 0.2): 0.843 S/m
electrical conductivity (308 K, x1 = 0.01): 1.47 S/m
electrical conductivity (308 K, x1 = 0.02): 2.06 S/m
electrical conductivity (308 K, x1 = 0.03): 2.39 S/m
electrical conductivity (308 K, x1 = 0.05): 2.45 S/m
electrical conductivity (308 K, x1 = 0.06): 2.41 S/m
electrical conductivity (308 K, x1 = 0.07): 2.33 S/m
electrical conductivity (308 K, x1 = 0.1): 2.01 S/m
electrical conductivity (308 K, x1 = 0.12): 1.7 S/m
electrical conductivity (308 K, x1 = 0.15): 1.36 S/m
electrical conductivity (313 K, x1 = 0.01): 1.53 S/m
electrical conductivity (313 K, x1 = 0.02): 2.15 S/m
electrical conductivity (313 K, x1 = 0.03): 2.5 S/m
electrical conductivity (313 K, x1 = 0.05): 2.57 S/m
electrical conductivity (313 K, x1 = 0.06): 2.54 S/m
electrical conductivity (313 K, x1 = 0.08): 2.34 S/m
electrical conductivity (313 K, x1 = 0.1): 2.14 S/m
electrical conductivity (313 K, x1 = 0.12): 1.81 S/m
electrical conductivity (313 K, x1 = 0.15): 1.46 S/m
electrical conductivity (313 K, x1 = 0.2): 1.04 S/m
electrical conductivity (318 K, x1 = 0.02): 2.23 S/m
electrical conductivity (318 K, x1 = 0.03): 2.6 S/m
electrical conductivity (318 K, x1 = 0.05): 2.7 S/m
electrical conductivity (318 K, x1 = 0.07): 2.61 S/m
electrical conductivity (318 K, x1 = 0.1): 2.28 S/m
electrical conductivity (318 K, x1 = 0.12): 1.94 S/m
electrical conductivity (323 K, x1 = 0.02): 2.33 S/m
electrical conductivity (323 K, x1 = 0.03): 2.71 S/m
electrical conductivity (323 K, x1 = 0.05): 2.82 S/m
electrical conductivity (323 K, x1 = 0.06): 2.8 S/m
electrical conductivity (323 K, x1 = 0.07): 2.74 S/m
electrical conductivity (323 K, x1 = 0.08): 2.6 S/m
electrical conductivity (323 K, x1 = 0.1): 2.41 S/m
electrical conductivity (323 K, x1 = 0.12): 2.07 S/m
electrical conductivity (323 K, x1 = 0.15): 1.69 S/m
electrical conductivity (328 K, x1 = 0.01): 1.69 S/m
electrical conductivity (328 K, x1 = 0.02): 2.42 S/m
electrical conductivity (328 K, x1 = 0.03): 2.82 S/m
electrical conductivity (328 K, x1 = 0.06): 2.93 S/m
electrical conductivity (328 K, x1 = 0.07): 2.87 S/m
electrical conductivity (328 K, x1 = 0.08): 2.74 S/m
electrical conductivity (328 K, x1 = 0.1): 2.55 S/m
electrical conductivity (328 K, x1 = 0.15): 1.82 S/m
electrical conductivity (328 K, x1 = 0.2): 1.34 S/m
electrical conductivity (333 K, x1 = 0.05): 3.08 S/m
electrical conductivity (333 K, x1 = 0.06): 3.06 S/m
electrical conductivity (333 K, x1 = 0.08): 2.88 S/m
electrical conductivity (333 K, x1 = 0.1): 2.69 S/m
electrical conductivity (333 K, x1 = 0.12): 2.32 S/m
electrical conductivity (333 K, x1 = 0.15): 1.94 S/m
electrical conductivity (333 K, x1 = 0.2): 1.46 S/m
electrical conductivity (338 K, x1 = 0.01): 1.8 S/m
electrical conductivity (338 K, x1 = 0.02): 2.59 S/m
electrical conductivity (338 K, x1 = 0.03): 3.03 S/m
electrical conductivity (338 K, x1 = 0.06): 3.21 S/m
electrical conductivity (338 K, x1 = 0.08): 3.02 S/m
electrical conductivity (338 K, x1 = 0.1): 2.83 S/m
electrical conductivity (338 K, x1 = 0.12): 2.46 S/m
electrical conductivity (338 K, x1 = 0.15): 2.06 S/m
electrical conductivity (338 K, x1 = 0.2): 1.57 S/m
electrical conductivity (343 K, x1 = 0.01): 1.86 S/m
electrical conductivity (343 K, x1 = 0.02): 2.67 S/m
electrical conductivity (343 K, x1 = 0.03): 3.14 S/m
electrical conductivity (343 K, x1 = 0.05): 3.33 S/m
electrical conductivity (343 K, x1 = 0.06): 3.34 S/m
electrical conductivity (343 K, x1 = 0.1): 2.96 S/m
electrical conductivity (343 K, x1 = 0.12): 2.6 S/m
electrical conductivity (343 K, x1 = 0.2): 1.7 S/m
electrical conductivity (348 K, x1 = 0.01): 1.91 S/m
electrical conductivity (348 K, x1 = 0.03): 3.24 S/m
electrical conductivity (348 K, x1 = 0.05): 3.45 S/m
electrical conductivity (348 K, x1 = 0.06): 3.46 S/m
electrical conductivity (348 K, x1 = 0.1): 3.11 S/m
electrical conductivity (348 K, x1 = 0.15): 2.32 S/m
electrical conductivity (348 K, x1 = 0.2): 1.81 S/m
